Measurements from patent US7368137B2, “Smilagenin and its use” (priority 1999, dated 2008).

Assays:
[1] = test system: muscarinic receptors on cultured cardiac muscle cells; assay: Muscarinic receptor expression on cultured neonatal cardiac muscle cells (tritiated QNB binding); assay type: cell-based, Sprague Dawley rats; conditions: NS = No significant effect
Protocol: 3. Cultured cardiac muscle cells obtained from neonatal Sprague Dawley rats. The cardiac muscle cells express muscarinic receptors, typically m2. The level of these receptors fails on prolonged culture and the effects of compounds of interest in preventing the fall in receptor numbers was investigated.
Cardiac muscle cells were isolated from the ventricular muscle of neonatal Sprague Dawley rats using standard techniques. Cells were cultured in vitro and muscarinic receptor numbers expressed on cell surfaces membrane fragments after homogenization of cells harvested at various time points were estimated using specific binding of tritiated QNB. […] The experiments were therefore designed to investigate the effects of the various compounds in inhibiting this decline in receptor numbers.

[2] = test system: m2 receptors on CHO cells; assay: Expression of m2 receptors on CHO cells transfected with DNA for the m2 receptor (tritiated QNB binding); assay type: cell-based; conditions: for Effect on receptor expression - given as % increase compared to control (negative values in brackets): DMSO control, NS = No significant effect
m2 receptors on CHO cells, sequence (P08172 whole entry, the tested form may be a part): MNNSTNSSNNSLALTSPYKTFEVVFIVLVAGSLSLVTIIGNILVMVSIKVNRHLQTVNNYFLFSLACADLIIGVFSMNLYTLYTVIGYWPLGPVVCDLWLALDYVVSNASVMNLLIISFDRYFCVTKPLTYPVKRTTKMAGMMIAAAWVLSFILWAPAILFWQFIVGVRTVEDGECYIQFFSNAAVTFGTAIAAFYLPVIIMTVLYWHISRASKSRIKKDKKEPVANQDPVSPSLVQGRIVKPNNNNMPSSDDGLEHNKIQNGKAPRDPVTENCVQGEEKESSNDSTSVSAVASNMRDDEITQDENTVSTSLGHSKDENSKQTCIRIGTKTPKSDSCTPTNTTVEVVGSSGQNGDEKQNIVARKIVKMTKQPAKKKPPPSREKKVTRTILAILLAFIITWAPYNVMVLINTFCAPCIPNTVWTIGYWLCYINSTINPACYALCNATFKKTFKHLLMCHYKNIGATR
Protocol: 1. Chinese hamster ovary (CHO) cells transfected with the a DNA fragment coding for a muscarinic receptor. The cell line used-for the majority of the experiments was a cell line expressing the m2 receptor.
The-effects of various compounds on the expression of m2 receptors on CHO cells transfected with DNA for the m2 receptor were investigated. Receptor numbers were assayed using tritiated QNB binding and subtracting non-specific binding. Compounds were dissolved in DMSO and DMSO was used as a control. Compounds were tested at a range of final concentrations. Compounds were also tested in the presence and absence of tamoxifen to try to distinguish an oestrogen receptor mediated mechanism. The results are summarized in the Table 2 below, where the compound used in the invention appears in bold, and data on other sapogenins is given for comparative purposes: […]

[3] = test system: muscarinic receptors in PC12 cells; assay: Muscarinic receptor number in PC12 cells incubated with β-amyloid (radio-labeled ligand binding); assay type: cell-based
Protocol: Other in vitro assays have been employed to establish the effects of smilagenin. In particular various neuroblastoma cell lines including SKN-SN and SH-SY5Y cells as well as phaechromoacytoma cell lines have been cultured in vitro in the presence of β-amyloid fragments or serum depletion. […] These techniques included Trypan blue exclusion, chemiluminescence and release of lactate dehydrogenase. Of most interest was the observation that incubation of cells, in particular PC12 cells, with β-amyloid reduced the number of muscarinic receptors measured using radio-labeled ligand binding techniques.

aged Sprague-Dawley rats = assay: Cognitive function in the Y-maze test in aged rats; assay type: in vivo; conditions: 18 mg/kg/day in chow, 3 months intake; rats aged 23 months; FIG. 4
Protocol: Methods: Cognitive function in the Y-maze test
Sprague-Dawley rats aged 23 months (i.e. aged) were divided into aged-control or aged+smilagenin treatment group. Rats aged 3 to 4 months acted as young controls. The treatment group received 18 mg/kg/day of smilagenin in chow. Chow without smilagenin was given to each rat after the chow containing smilagenin had been consumed. Three months later the animals were tested in the Y-maze as follows; an equilateral Y-shaped maze was used composed of three 45 cm arms with copper rods in the floor at the end of each arm which conduct electricity and which were 0.2 cm in diameter, 14 cm in length and with a 1 cm gap between them. There were 15 W signal lights at each end. A safe region was indicated by a light signal in an arm where there was no electricity. If a rat moved to a safe region, a correct reaction was recorded. If it moved to an arm where there was no light, an error reaction was recorded. Following the response, an electric shock was again given after a 5 seconds interval. Twenty trials in total were conducted and the correct reaction rate was obtained: number of correct reactions/(20)/mean response time. Seven such training sessions were completed over seven days. Memory tests were then repeated 15 and 30 days later (=4 months) using the same techniques as just described.

[4] = test system: muscarinic (M) receptor in the brain; assay: Single point analysis of brain M receptor density in aged rats; assay type: in vivo, Sprague-Dawley rats; conditions: 18 mg/kg/day in chow over 3 months; 23-month-old rats; FIG. 3
Protocol: Methods: Single point analysis of brain M receptor density.
Sprague-Dawley rats, 23-month-old, (i.e. aged) were divided into 2 groups, aged-control and aged+smilagenin. Smilagenin (18 mg/kg/day) was mixed in the chow over the 3 month period; Male 4-6 month old rats acted as young controls. At the end of the 3-month treatment period, pairs of treated and control animals were sacrificed by cervical dislocation and the intact brain removed. Single point analysis of brain M receptor density was obtained.

Testosterone receptor = molecular target: T1, Testosterone receptor (Homo sapiens, UniProt P10275); assay: Activity at steroid receptors: testosterone
T1 sequence (P10275 1-920): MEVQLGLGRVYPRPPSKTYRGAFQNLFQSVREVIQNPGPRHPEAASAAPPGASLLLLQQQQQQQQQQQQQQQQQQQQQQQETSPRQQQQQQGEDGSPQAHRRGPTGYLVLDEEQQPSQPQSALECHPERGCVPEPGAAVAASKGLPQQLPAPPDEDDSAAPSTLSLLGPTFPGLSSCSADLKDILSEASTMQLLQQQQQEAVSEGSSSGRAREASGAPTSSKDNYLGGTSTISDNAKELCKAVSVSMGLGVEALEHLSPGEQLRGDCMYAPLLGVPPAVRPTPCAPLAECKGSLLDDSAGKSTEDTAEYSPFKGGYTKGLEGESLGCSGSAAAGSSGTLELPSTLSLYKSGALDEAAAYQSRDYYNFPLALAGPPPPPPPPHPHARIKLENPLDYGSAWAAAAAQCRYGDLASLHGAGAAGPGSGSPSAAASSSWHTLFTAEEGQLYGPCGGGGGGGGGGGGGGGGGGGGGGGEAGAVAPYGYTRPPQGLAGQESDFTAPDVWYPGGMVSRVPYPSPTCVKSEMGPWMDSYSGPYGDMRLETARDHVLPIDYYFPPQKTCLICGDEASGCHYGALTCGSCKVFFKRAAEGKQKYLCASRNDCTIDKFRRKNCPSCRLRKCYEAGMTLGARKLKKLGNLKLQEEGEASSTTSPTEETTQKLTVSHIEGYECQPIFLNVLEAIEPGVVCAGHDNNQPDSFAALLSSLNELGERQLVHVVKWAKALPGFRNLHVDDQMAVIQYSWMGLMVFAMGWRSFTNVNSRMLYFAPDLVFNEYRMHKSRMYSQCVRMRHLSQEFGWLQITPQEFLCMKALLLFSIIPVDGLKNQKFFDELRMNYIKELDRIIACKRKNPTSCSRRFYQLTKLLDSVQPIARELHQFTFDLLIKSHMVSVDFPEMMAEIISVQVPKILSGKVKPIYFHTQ
Source text: (§1) In identifying compounds that would have use in the treatment of SDAT and other diseases characterized by reductions in receptor numbers or synaptic transmission, the inventors have given consideration to the need to identify compounds that would-have the desired effect but would be devoid of any oestrogenic effects, as these would be unacceptable, particularly in male patients. A number of the compounds claimed to have activity in patent application DE 4303214A1 have marked oestrogenic activity and are therefore unacceptable.

Progesterone receptor = molecular target: T2, Progesterone receptor (Homo sapiens, UniProt P06401); assay: Activity at steroid receptors: progesterone
T2 sequence (P06401 1-933): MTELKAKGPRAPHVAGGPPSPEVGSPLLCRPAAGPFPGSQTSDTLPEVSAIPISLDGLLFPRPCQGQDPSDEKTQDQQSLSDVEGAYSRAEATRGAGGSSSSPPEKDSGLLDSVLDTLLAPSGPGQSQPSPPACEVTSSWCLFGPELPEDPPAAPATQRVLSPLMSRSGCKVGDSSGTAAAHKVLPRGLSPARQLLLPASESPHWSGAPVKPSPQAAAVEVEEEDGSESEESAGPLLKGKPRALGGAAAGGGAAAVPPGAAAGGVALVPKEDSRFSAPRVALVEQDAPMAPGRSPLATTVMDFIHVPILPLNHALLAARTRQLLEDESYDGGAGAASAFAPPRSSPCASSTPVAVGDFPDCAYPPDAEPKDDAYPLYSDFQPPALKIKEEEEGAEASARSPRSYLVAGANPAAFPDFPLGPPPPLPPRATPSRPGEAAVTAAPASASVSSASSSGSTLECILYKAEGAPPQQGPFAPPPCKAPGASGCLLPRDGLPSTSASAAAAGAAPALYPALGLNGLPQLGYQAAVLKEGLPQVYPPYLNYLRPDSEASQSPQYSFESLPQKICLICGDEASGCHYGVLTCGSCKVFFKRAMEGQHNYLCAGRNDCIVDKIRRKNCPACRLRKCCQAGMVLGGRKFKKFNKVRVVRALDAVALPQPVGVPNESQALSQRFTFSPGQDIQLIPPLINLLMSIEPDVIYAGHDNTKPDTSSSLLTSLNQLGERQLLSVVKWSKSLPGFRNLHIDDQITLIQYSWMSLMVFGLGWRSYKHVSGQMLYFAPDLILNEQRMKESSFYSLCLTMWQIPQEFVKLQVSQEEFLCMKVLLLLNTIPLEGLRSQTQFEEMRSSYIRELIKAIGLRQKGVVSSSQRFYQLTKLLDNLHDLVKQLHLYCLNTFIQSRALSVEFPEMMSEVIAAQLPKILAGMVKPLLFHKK
Source text: as §1

Glucocorticoid receptor = molecular target: T3, Glucocorticoid receptor (Homo sapiens, UniProt P04150); assay: Activity at steroid receptors: glucocorticoid
T3 sequence (P04150 1-777): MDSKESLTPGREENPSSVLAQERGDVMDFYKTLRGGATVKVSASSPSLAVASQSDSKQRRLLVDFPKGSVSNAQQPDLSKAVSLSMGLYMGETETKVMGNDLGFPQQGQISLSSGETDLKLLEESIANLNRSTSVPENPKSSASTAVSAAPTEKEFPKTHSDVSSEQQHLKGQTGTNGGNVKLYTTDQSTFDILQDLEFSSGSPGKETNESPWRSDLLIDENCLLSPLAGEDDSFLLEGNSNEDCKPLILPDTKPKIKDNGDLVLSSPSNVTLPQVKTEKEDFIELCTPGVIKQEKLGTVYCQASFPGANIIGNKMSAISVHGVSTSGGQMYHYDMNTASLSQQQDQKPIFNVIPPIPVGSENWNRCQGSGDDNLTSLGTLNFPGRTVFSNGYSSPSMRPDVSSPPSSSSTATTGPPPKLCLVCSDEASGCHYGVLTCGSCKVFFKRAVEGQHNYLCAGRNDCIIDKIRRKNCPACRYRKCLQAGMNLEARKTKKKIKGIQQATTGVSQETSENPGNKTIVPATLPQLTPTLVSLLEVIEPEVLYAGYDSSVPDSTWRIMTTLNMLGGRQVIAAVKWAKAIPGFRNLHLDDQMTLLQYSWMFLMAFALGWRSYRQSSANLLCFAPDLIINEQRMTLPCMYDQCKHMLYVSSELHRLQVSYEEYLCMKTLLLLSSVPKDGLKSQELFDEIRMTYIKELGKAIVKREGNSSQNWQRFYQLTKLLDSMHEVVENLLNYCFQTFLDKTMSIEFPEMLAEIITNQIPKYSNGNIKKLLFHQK
Source text: as §1

oestrogen receptor = assay: Oestrogenic activity
Source text: as §1

[5] = test system: recombinant human muscarinic receptors in CHO cells; assay: Muscarinic receptor density in CHO cells expressing recombinant human muscarinic receptors ([3H]-QNB); assay type: cell-based; conditions: smilagenin at 1 and 10 μM; FIG. 2
Protocol: In a CHO cell line expressing recombinant human muscarinic receptors in vitro, the number of muscarinic receptors tends to decline with time. Smilagenin (1-10 μM) incubated for 72 hours increases muscarinic receptor density.
Effect of smilagenin on muscarinic receptor density in CHO cells expressing recombinant human muscarinic receptors.
Chinese hamster ovary (CHO) cells expressing high levels of receptor (˜2.2 pmoles receptor/mg protein) were cultured in flasks (150 ml) for 24 hours before the start of the experiment. Vehicle (DMSO) and smilagenin (at 1 and 10 μM) were added to the medium for 48 h. The culture medium was discarded, the cells scraped off and resuspended in Hanks solution, centrifuged and m-receptor levels determined by incubating with [^3H]-QNB for 30 min followed by liquid scintillation counting. Protein levels were determined by a micro Lowry method.

[6] = molar concentration of compound 10^−5

muscarinic receptors on cultured cardiac muscle cells, sequence (P10980 whole entry): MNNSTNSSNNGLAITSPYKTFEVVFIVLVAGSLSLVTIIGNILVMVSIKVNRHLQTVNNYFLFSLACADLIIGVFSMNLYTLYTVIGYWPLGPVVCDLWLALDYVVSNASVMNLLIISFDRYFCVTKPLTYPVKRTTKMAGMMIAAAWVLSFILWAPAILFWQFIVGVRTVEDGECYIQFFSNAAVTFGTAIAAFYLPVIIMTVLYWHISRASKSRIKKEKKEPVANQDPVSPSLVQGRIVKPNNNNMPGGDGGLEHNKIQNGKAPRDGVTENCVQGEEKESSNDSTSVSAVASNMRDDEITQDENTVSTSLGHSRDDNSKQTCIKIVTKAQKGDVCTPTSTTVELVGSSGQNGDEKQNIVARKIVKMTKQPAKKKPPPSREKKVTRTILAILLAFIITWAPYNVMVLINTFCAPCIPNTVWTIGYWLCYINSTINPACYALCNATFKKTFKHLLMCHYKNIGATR

Compound	Concentration of compound causing a significant increase in number of receptors expressed on neonatal cardiac muscle after 10 days in vitro culture [1]	Effect on receptor expression - given as % increase compared to control (negative values in brackets) [2, 6] [%]	Effect on β-amyloid-induced reduction in muscarinic receptor numbers [3]	Cognitive function (learning and memory performance) in Y-maze (aged Sprague-Dawley rats)	Brain M receptor numbers compared to aged controls [4]	Activity at testosterone receptor (Testosterone receptor)	Activity at progesterone receptor (Progesterone receptor)	Effect on receptor expression - given as % increase compared to control (negative values in brackets) ([2]; molar concentration of compound 10^−6) [%]	Effect of tamoxifen on the increase in muscarinic receptor number on CHO cells ([2]; tested in the presence and absence of tamoxifen)	Activity at glucocorticoid receptor (Glucocorticoid receptor)	Oestrogenic activity (oestrogen receptor)	Effect on muscarinic receptor number/density over the culturing period [5]
C[C@@H]1CC[C@@]2(OC1)O[C@H]1C[C@H]3[C@@H]4C[C@@H](O)[C@@]5(O)C[C@@H](O)CC[C@]5(C)[C@H]4CC[C@]3(C)[C@H]1[C@@H]2C [Anzurogenin D, reference compound]	10^−6M	22										
smilagenin	10^−6M	57	ameliorated	reversed the decline in cognitive function	increased M receptor numbers	no activity	no activity	18	not antagonized by tamoxifen	no activity	does not display oestrogenic activity	prevents the decrease in muscarinic receptor number in a concentration-dependent manner
Astragaloside	10^−5M											
